Results: patent publication US20080139611A1, “METHODS OF USING 4-PHENYLAMINOQUINOLINES AS TOPICAL NON-STEROIDAL ANTIINFLAMMATORY COMPOUNDS” (priority 2006, published 2008)

Key:
PMA-induced ear swelling = test: PMA-induced mouse ear swelling (topical anti-inflammatory activity); assay type: in vivo, CD-1 (Crl.) derived male mice; settings: topical 3 mg/ear applied 30 min before and 15 min after PMA, measured 6 hours after PMA, >=30% considered significant
Experimental: A compound can be tested for topical anti-inflammatory activity by measuring the degree of inhibition of edema produced in a mouse ear that has been irritated by the application of a solution of a phorbol ester. [2-(7-Trifluoromethyl-quinolin-4-ylamino)-phenyl]-acetic acid sodium salt was tested for its anti-inflammatory activity as follows: Groups of 6 CD-1 (Crl.) derived male mice weighing 24±2 g were used. Phorbol 12-Myristate 13-Acetate (PMA 4 μg in 20 μl of Acetone) was applied topically to the anterior and posterior surfaces of the right ear to each animal. Vehicle (Ethanol:Acetone/1:1, 20 μl/ear) and [2-(7-Trifluoromethyl-quinolin-4-ylamino)-phenyl]-acetic acid sodium salt at 3 mg/ear were each applied 30 minutes before and 15 minutes after Phorbol 12-Myristate 13-Acetate challenge. Indomethacin (3 mg in 20 μl/ear of acetone:ethanol/1:1) as the positive control was similarly applied at the same timing. Ear swelling was then measured by a Dyer model micrometer gauge at 6 hours after Phorbol 12 Myristate 13-Acetate application as an index of inflammation. Percent inhibition was calculated according to the formula: ([Ic−It]/Ic)×100%, where Ic and It refer to increase of ear thickness (mm) in control and treated mice, respectively. Inhibition of 30 percent or more (≧30%) in ear swelling is considered significant anti-inflammatory activity.
[2-(7-Trifluoromethyl-quinolin-4-ylamino)-phenyl]-acetic acid sodium salt caused significant inhibition (80%) of the PMA-induced ear swelling vs vehicle control. […] When [2-(7-Trifluoromethyl-quinolin-4-ylamino)-phenyl]-acetic acid methyl ester was tested in this assay, the inhibition of ear swelling was not significant (20% inhibition).

COX-1 enzyme = target: T1, COX-1 enzyme (Homo sapiens, UniProt P23219); test: COX-1 inhibition in human platelets (PGE2 formation, EIA); assay type: cell-based
T1 construct: Human platelets are used; endogenous in cells; host or cells: human platelets
T1 sequence (P23219 24-599): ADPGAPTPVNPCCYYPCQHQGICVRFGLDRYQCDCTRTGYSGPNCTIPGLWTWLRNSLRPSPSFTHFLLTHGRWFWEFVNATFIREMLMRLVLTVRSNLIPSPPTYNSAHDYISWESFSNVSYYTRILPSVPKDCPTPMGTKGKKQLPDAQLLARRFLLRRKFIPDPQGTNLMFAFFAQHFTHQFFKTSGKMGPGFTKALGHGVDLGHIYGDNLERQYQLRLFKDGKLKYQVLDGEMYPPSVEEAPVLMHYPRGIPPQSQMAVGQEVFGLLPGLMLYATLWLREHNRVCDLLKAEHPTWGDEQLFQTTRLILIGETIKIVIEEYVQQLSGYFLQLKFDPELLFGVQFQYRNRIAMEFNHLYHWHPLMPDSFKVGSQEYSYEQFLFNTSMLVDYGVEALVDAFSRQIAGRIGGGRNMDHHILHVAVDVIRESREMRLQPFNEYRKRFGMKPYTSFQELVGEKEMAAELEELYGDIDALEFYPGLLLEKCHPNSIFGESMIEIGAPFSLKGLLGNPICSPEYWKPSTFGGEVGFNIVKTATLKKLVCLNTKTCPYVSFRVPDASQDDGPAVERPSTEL
Experimental: Compounds can be tested for their ability to inhibit the COX-1 enzyme by the following procedure: Human platelets are used. Test compound and/or vehicle is incubated with cells (5×10^7/ml) in modified HEPES buffer pH 7.4 for 15 minutes at 37° C. The reaction is initiated by addition of 100 μM arachidonic acid for another 15 minute incubation period and terminated by further addition of 1 N HCl. An aliquot is removed and the amount of PGE 2 formed is determined spectrophotometrically by enzyme immunoassay (“EIA”) kit.
[2-(7-Trifluoromethyl-quinolin-4-ylamino)-phenyl]-acetic acid hydrochloride was screened at 6 concentrations to test for inhibition of the enzyme: 0.1 μM, 0.3 μM, 1 μM, 3 μM, 10 μM and 30 μM. [2-(7-Trifluoromethyl-quinolin-4-ylamino)-phenyl]-acetic acid hydrochloride inhibited the COX-1 enzyme with an IC50 of <0.1 μM in this assay.

[1] = target: T2, Human recombinant Cyclooxygenase-2 (Homo sapiens, UniProt P35354); test: COX-2 inhibition, human recombinant enzyme (PGE2 formation, EIA); assay type: biochemical; settings: human recombinant COX-2 expressed in Sf21 cells; 7 concentrations 0.01-10 μM; 0.3 μM arachidonic acid
T2 construct: purchased Sigma C-0858; host or cells: Sf21 cells
T2 sequence (P35354 18-604): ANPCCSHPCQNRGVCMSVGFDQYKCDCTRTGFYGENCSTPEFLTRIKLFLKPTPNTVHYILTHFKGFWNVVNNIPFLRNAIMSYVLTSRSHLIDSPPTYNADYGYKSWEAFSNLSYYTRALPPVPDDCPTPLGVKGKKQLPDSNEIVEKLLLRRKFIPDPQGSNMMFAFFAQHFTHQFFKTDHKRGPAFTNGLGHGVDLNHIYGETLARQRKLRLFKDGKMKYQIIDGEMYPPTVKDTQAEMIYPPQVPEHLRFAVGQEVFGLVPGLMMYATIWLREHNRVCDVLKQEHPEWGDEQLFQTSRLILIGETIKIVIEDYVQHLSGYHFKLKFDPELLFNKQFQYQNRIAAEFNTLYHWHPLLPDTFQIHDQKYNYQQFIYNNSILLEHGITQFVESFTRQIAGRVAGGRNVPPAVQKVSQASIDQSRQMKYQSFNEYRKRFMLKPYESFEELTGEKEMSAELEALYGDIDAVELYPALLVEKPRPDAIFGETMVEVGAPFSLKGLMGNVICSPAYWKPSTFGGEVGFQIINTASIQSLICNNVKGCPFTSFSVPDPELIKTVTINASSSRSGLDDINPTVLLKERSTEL
Experimental: Compounds can be tested for their ability to inhibit the COX-2 enzyme by the following procedure: Human recombinant Cyclooxygenase-2 expressed in Sf21 cells (Sigma, C-0858) is used. Test compound and/or vehicle is preincubated with 0.11 U cyclooxygenase-2, 1 mM reduced GSH, 500 μM phenol and 1 μM hematin for 15 minutes at 37° C. in Tris-HCl buffer pH 7.7. The reaction is initiated by addition of 0.3 μM arachidonic acid and terminated after 5 minutes by further addition of 1 N HCl. Following centrifugation, substrate conversion to PGE 2 is measured by an Amersham EIA kit.
[2-(7-Trifluoromethyl-quinolin-4-ylamino)-phenyl]-acetic acid hydrochloride was screened at 7 concentrations to test for inhibition of the enzyme: 0.01 uM, 0.03 μM, 0.1 μM, 0.3 μM, 1 μM, 3 μM and 10 μM.

SMILES	melting point [°C]	inhibition of PMA-induced ear swelling vs vehicle control (PMA-induced ear swelling) [%]	IC50 (COX-1 enzyme; screened at 6 concentrations 0.1-30 μM, 100 μM arachidonic acid) [nM]	IC50 (COX-1 enzyme; tested separately at 3 concentrations (0.01, 0.03 and 0.1 μM)) [nM]	IC50 [1] [nM]
Cl.O=C(O)Cc1ccccc1Nc1ccnc2cc(Cl)ccc12	113 to 116				
COc1ccc2c(c1)c(CC(=O)O)c(C)n2C(=O)c1ccc(Cl)cc1 [Indomethacin, reference compound]		77			
Cl.O=C(O)Cc1ccccc1Nc1ccnc2cc(C(F)(F)F)ccc12 [[2-(7-Trifluoromethyl-quinolin-4-ylamino)-phenyl]-acetic acid hydrochloride]	103 to 104	75	< 100	81	61
COC(=O)Cc1ccccc1Nc1ccnc2cc(C(F)(F)F)ccc12 [[2-(7-Trifluoromethyl-quinolin-4-ylamino)-phenyl]-acetic acid methyl ester]		20			
O=C([O-])Cc1ccccc1Nc1ccnc2cc(C(F)(F)F)ccc12.[Na+] [[2-(7-Trifluoromethyl-quinolin-4-ylamino)-phenyl]-acetic acid sodium salt]		80			
